# Measurements published in patent publication US20090234019A1, “T Type Calcium Channel Inhibitors” (priority 2004, published 2009).
# Where two headings read alike, the source gives them in different places.
# What was measured:
# MDA-231 cells [1] = assay: Inhibition of proliferation of MDA-231 cells; assay type: cell-based; settings: Homo sapiens, read-out: prolif: IC50 for inhibition of proliferation, MDA-231
# MDA-435 cells = assay: Inhibition of proliferation of MDA-435 cells; assay type: cell-based; settings: read-out: prolif: IC50 for inhibition of proliferation, MDA-435
# MDA-361 cells = assay: Inhibition of proliferation of MDA-361 cells; assay type: cell-based; settings: MDA361, NE = no effect at highest concentration of drug tested, read-out: prolif: IC50 for inhibition of proliferation, MDA-361
# Method: (§1) Cancer cell lines were obtained from the American Type Culture Collection (Manassas, Va.). Cell lines were maintained in RPMI1640 supplemented with glutamine and 5% fetal bovine serum containing SerXtend (Irvine Scientific) when appropriate insulin, as directed by the ATCC. The fetal bovine serum used for culture was heat-inactivated by maintaining the serum at 56° C. for 1 h. Cell lines used were a T celleukemia (Jurkat), prostate cancer (PC3, DU145, LNCAP), breast cancer (MDA468, MDA361, MCF7), pancreatic cancer (MIA PaCa2), liver cancer (Hep G2), lung cancer (A549, NCl H460), colon cancer (HT29, HCT 116), and ovarian cancer (SK-OV-3).
# (§2) LNCaP cells at 2.5×10^4 cells/well or PC-3 cells at 5×10^4 cells/well, both in a final volume of […], were plated in triplicate in standard flat-bottomed 96-well tissue culture plates in the presence of drug or vehicle (DMSO). Unless otherwise indicated, cells were grown for 48 h at 37° C. in a CO2 incubator. Relative cell growth was determined with the CellTiter 96 aqueous cell proliferation assay (Promega, Madison, Wis.) as described by the manufacturer using an automated plate reader. Results were calculated in a blinded fashion and are the means of triplicate determinations.
# Jurkat cells [2] = assay: Inhibition of proliferation of Jurkat cells; assay type: cell-based, human
# Method: as §1, §2
# PC3 cells = assay: Inhibition of proliferation of PC3 cells; assay type: cell-based, human; settings: Homo sapiens, PC-3, PC3, read-out: prolif: IC50 for inhibition of proliferation, PC3
# Method: as §1, §2
# LNCaP cells [3] = assay: Inhibition of proliferation of LNCaP cells; assay type: cell-based; settings: Homo sapiens, read-out: prolif: IC50 for inhibition of proliferation, LNCaP
# Method: as §1, §2
# Jurkat cells [4] = assay: Inhibition of calcium entry into Jurkat cells (indo-1 fluorescence); assay type: cell-based, human
# Method: Cells were incubated in growth media containing 1 uM of the acetoxy-methyl ester of the Ca2+-sensitive fluorescent dye indo-1 (indo-1/AM; Molecular Probes, Eugene, Oreg.) for 1 h at 37° C. Cells were washed three times in buffer A [10 mM HEPES (pH 7.4), 1 mM MgCl2, 3 mM KCl, 1 mM CaCl2, 140 mM NaCl, 0.1% glucose, and 1% fetal bovine serum] and suspended to a final concentration of 10^6 cells/ml. Before stimulation, cells were warmed to 37° C. Changes in [Ca2+]i were monitored in an SLM […] spectrofluorimeter (SLM/Aminco; Urbana, Ill.) using previously published methods ([…]., Szabo, G., and Gray, L. S. 1996. A voltage operable current is involved in activation-induced Ca^2+ entry in human lymphocytes whereas ICRAC has no apparent role. Am. J. Physiol. 271:[…]., and Gray, L. S. 1998. Calmodulin regulation of Ca^2+ entry in Jurkat T cells. Cell Calcium 23:361-368).
# LNCaP cells [5] = assay: Inhibition of calcium entry into LNCaP cells; assay type: cell-based; settings: Homo sapiens, NE = no effect at highest concentration of drug tested, read-out: Ca2+: IC50 for inhibition of calcium entry, LNCaP
# Method: (§3) Cells were incubated in growth media containing 1 uM of the acetoxy-methyl ester of the Ca2+-sensitive fluorescent dye indo-1 (indo-1/AM; Molecular Probes, Eugene, Oreg.) for 1 h at 37° C. Cells were washed three times in buffer A [10 mM HEPES (pH 7.4), 1 mM MgCl2, 3 mM KCl, 1 mM CaCl2, 140 mM NaCl, 0.1% glucose, and 1% fetal bovine serum] and suspended to a final concentration of 10^6 cells/ml. Before stimulation, cells were warmed to 37° C. Changes in [Ca2+]i were monitored in an SLM 8100C spectrofluorimeter (SLM/Aminco; Urbana, Ill.) using previously published methods (Densmore, J. J., Haverstick, D. M., Szabo, G., and Gray, L. S. 1996. A voltage operable current is involved in activation-induced Ca^2+ entry in human lymphocytes whereas ICRAC has no apparent role. Am. J. Physiol. 271:C1494-C1503; Haverstick, D. M., Densmore, J. J., and Gray, L. S. 1998. Calmodulin regulation of Ca^2+ entry in Jurkat T cells. Cell Calcium 23:361-368).
# MDA-231 cells [6] = assay: Inhibition of calcium entry into MDA-231 cells; assay type: cell-based; settings: Homo sapiens, MDA-MB-231, NE = no effect at highest concentration of drug tested, read-out: Ca2+: IC50 for inhibition of calcium entry, MDA-231
# Method: as §3
# [7] = Homo sapiens, Jurkat, NE = no effect at highest concentration of drug tested, read-out: prolif: IC50 for inhibition of proliferation, Jurkat
# [8] = Homo sapiens, Jurkat cell line, Tables 1 and 2, unit inferred, read-out: IC50 for inhibition of Ca^2+ entry
# [9] = Homo sapiens, Jurkat cell line, Tables 1 and 2, unit inferred, read-out: IC50 for inhibition of proliferation
# [10] = MDA-MB-231, NE = no effect at highest concentration of drug tested
# [11] = Homo sapiens, Jurkat, NE = no effect at highest concentration of drug tested, read-out: Ca2+: IC50 for inhibition of calcium entry, Jurkat
# [12] = MDA435, NE = no effect at highest concentration of drug tested
# [13] = NE = no effect at highest concentration of drug tested
smiles,measurement,setting,value
COc1ccc(CCNc2ccccc2COC(c2ccccc2)c2ccc(Cl)cc2)cc1 (stereo not drawn) [Compound 3.10],IC50,"MDA-231 cells [1]; MDA-MB-231, mM",> 1 mM
same,IC50,"MDA-435 cells; MDA435, mM",> 1 mM
same,IC50,MDA-361 cells,~70 µM
same,IC50,Jurkat cells [2]; [7],> 300 µM
same,IC50,PC3 cells; mM,> 1 mM
same,IC50,LNCaP cells [3]; mM,> 1 mM
O=C(O)c1cccnc1Nc1cccc(C(F)(F)F)c1 [Niflumic acid],IC50,Jurkat cells [4]; [8],50 µM
same,IC50,Jurkat cells [2]; [9],100 µM
"CC(Cc1ccc(O)c(O)c1)C(C)Cc1ccc(O)c(O)c1 (stereo not drawn) [NDGA, Nordihydroguaiaretic acid]",IC50,"Jurkat cells [4]; Jurkat cell line, Tables 1 and 2, unit inferred, read-out: IC50 for inhibition of Ca^2+ entry",10 µM
same,IC50,"Jurkat cells [2]; Jurkat cell line, Tables 1 and 2, unit inferred, read-out: IC50 for inhibition of proliferation",30 µM
CC(NCCC(c1ccccc1)c1ccccc1)c1ccccc1 (stereo not drawn) [Fendiline],IC50,Jurkat cells [4]; [8],10 µM
same,IC50,Jurkat cells [2]; [9],30 µM
COc1ccc2cc1Oc1ccc(cc1)C[C@H]1c3cc(c(OC)cc3CCN1C)Oc1c(OC)c(OC)cc3c1[C@H](C2)N(C)CC3 [Tetrandrine],IC50,Jurkat cells [4]; [8],10 µM
same,IC50,Jurkat cells [2]; [9],3 µM
CN1CCN(C(c2ccccc2)c2ccc(Cl)cc2)CC1 (stereo not drawn) [Chlorcyclizine],IC50,Jurkat cells [4]; [8],25 µM
same,IC50,Jurkat cells [2]; [9],90 µM
CC(NC(C)(C)C)C(=O)c1cccc(Cl)c1 (stereo not drawn) [Bupropion],IC50,Jurkat cells [4]; [8],> 100 µM
same,IC50,Jurkat cells [2]; [9],> 100 µM
COc1ccc(CC[N+](C)(C)CCOC(c2ccccc2)c2ccc(Cl)cc2)cc1 (stereo not drawn) [Compound 3.16],IC50,MDA-231 cells [1]; [10],0.021 mM
same,IC50,Jurkat cells [4]; [11],30 µM
same,IC50,MDA-435 cells; [12],0.05 mM
same,IC50,MDA-361 cells,8 µM
same,IC50,Jurkat cells [2]; [7],23 µM
same,IC50,PC3 cells; [13],0.055 mM
same,IC50,LNCaP cells [5],10 µM
same,IC50,LNCaP cells [3]; [13],0.033 mM
COc1ccc(CCCCCCNC(c2ccccc2)c2ccc(Cl)cc2)cc1 (stereo not drawn) [Compound 3.23],IC50,MDA-231 cells [1]; [10],> 0.1 mM
same,IC50,MDA-435 cells; [12],> 0.1 mM
same,IC50,Jurkat cells [2]; [7],~30 µM
same,IC50,PC3 cells; [13],> 0.1 mM
same,IC50,LNCaP cells [3]; [13],~0.1 mM
Cc1cccc(C)c1NC(=O)CN1CCN(CCCC(c2ccc(F)cc2)c2ccc(F)cc2)CC1 [Lidoflazine],IC50,Jurkat cells [4]; [8],5 µM
same,IC50,Jurkat cells [2]; [9],10 µM
CC(C)COCC(CN(Cc1ccccc1)c1ccccc1)N1CCCC1 (stereo not drawn) [Bepridil],IC50,Jurkat cells [4]; [8],5 µM
same,IC50,Jurkat cells [2]; [9],10 µM
COc1ccc(CCCCCNCC(c2ccccc2)c2ccc(Cl)cc2)cc1 (stereo not drawn) [Compound 3.22],IC50,MDA-231 cells [1]; [10],0.025 mM
same,IC50,Jurkat cells [4]; [11],3 µM
same,IC50,MDA-435 cells; [12],0.04 mM
same,IC50,MDA-231 cells [6],10 µM
same,IC50,Jurkat cells [2]; [7],13 µM
same,IC50,PC3 cells; [13],0.009 mM
same,IC50,LNCaP cells [3]; [13],0.009 mM
C1CCC(C(CC2CCCCN2)C2CCCCC2)CC1 (stereo not drawn) [Perhexiline],IC50,Jurkat cells [4]; [8],5 µM
same,IC50,Jurkat cells [2]; [9],10 µM
CCC(=O)c1ccc2c(c1)N(CC(C)N(C)C)c1ccccc1S2 (stereo not drawn) [Propiomazine],IC50,Jurkat cells [4]; [8],30 µM
same,IC50,Jurkat cells [2]; [9],30 µM
COc1ccc(COCCOC(c2ccccc2)c2ccc(Cl)cc2)cc1 (stereo not drawn) [Compound 3.7],IC50,MDA-231 cells [1]; [10],> 0.1 mM
same,IC50,Jurkat cells [4]; [11],10 µM
same,IC50,MDA-435 cells; [12],> 0.1 mM
same,IC50,MDA-361 cells,> 100 µM
same,IC50,MDA-231 cells [6],60 µM
same,IC50,Jurkat cells [2]; [7],~100 µM
same,IC50,PC3 cells; [13],> 0.1 mM
same,IC50,LNCaP cells [3]; [13],~0.1 mM
